Results on one compound are retold here after patent US20180055838A1, “METHODS AND COMPOSITIONS FOR TREATMENT OF DERMAL AND EPIDERMAL WOUNDS” (THE PENN STATE RESEARCH FOUNDATION, priority 2011, published 2018).

Series [1] relates to basal cells of the cutaneous epithelium. Description: DNA synthesis (BrdU labeling index) in stratum basale of unwounded dorsal skin. Format: in vivo. The note with it: for increase of BrdU incorporation relative to labeling index of DB animals: DB (T1D) rats. As to the method: Male Sprague-Dawley rats (˜150 g) were purchased from Charles River Laboratories (Wilmington, Mass.), and housed under standard laboratory conditions; water and food were available ad libitum. All investigations conformed to the guidelines of The Pennsylvania State University College of Medicine Institutional Animal Care and Use Committee.
Type 1 diabetes (T1D) was induced by intraperitoneal (i.p.) injections of 40 mg/kg streptozotocin (STZ, Sigma, St. Louis, Mo.), on two consecutive days (Klocek et al., Journal of Ocular Pharmacology and Therapeutics, 23:89-102 (2007); Havel et al., Diabetes, 49:244-252 (2000)). This regimen produced insulin-dependent diabetes in 100% of the animals within 72-96 h; rats with blood glucose levels measuring >350 mg/dl were considered diabetic (DB). Blood glucose levels were monitored from the tail vein using a True Track® Smart System glucometer (Home Diagnostics, Ft. Lauderdale, Fla.) before receiving STZ, and at 1, 4, and 8 weeks following induction of hyperglycemia. Control animals receiving an injection of an equivalent volume of sterile saline were termed “normal”. All rats were weighed weekly.
Normal (n=24) and diabetic (DB) rats (n=24) were randomized 8 weeks after injections of STZ or saline, and received NTX (Sigma-Aldrich, Indianapolis, Ind.) systemically (30 mg/kg, i.p. or subcutaneous (s.c.) at 0800 h) or topically 3 times daily at 0700, 1200, and 1700 h. For topical applications, NTX was dissolved in Sorenson's phosphate buffer (SPB), KY jelly (KYJ) (K-Y, Personal Products Company, McNeil-PPC, Inc., Skillman, N.J.), Neutrogena moisturizing cream (MCN) (Neutrogena Corporation, Los Angeles, Calif.), or DMSO (VWR, Philadelphia, Pa.). NTX was dissolved in sterile water at dosages of 10^−4 M, 10^−5 M or 10^−6 M, and thoroughly mixed into each of the carriers (1:1, v/v); 0.5 ml of saline mixed into corresponding carriers served as the respective vehicle control.
On the day preceding NTX or vehicle treatment, an 8×8 cm area was shaved on the dorsal surface of each rat and 4 circles (approximately 20 mm in diameter) were made with a permanent marker to denote locations of subsequent topical applications and/or skin collection. Using an applicator stick, one ml of carrier containing NTX or vehicle was placed within the demarked areas. Applications of NTX formulations were randomized to different positions. Each animal received NTX in 3 different concentrations, as well as the vehicle, in the same carrier; some rats received only saline in a carrier or were untreated.
To assess cells undergoing DNA synthesis, rats were injected i.p. with 100 mg/kg BrdU (Sigma-Aldrich) 3 and 6 h before euthanasia with Euthasol (Virbac, Fort Worth, Tex.). Appropriate regions of the skin were removed, fixed in 10% buffered formalin, and paraffin sections (6 μm) were stained with anti-BrdU-POD (Invitrogen, Carlsbad, Calif.). BrdU stained cells in the basal layer of the epithelium were counted in four 0.1 mm grids at 250× magnification using 2 sections/specimen; 3 tissue specimens were analyzed for each dosage of NTX in each carrier.
(In general: Incorporation of labelled thymidine or its analogues reports DNA synthesis.)

The test system of series [2] is full-thickness cutaneous wounds. Description: Closure of 6 mm full-thickness cutaneous wounds (residual wound area, contraction, re-epithelialization). Format: in vivo, rat. The conditions noted are these: Normal rats, 10^−5 M NTX in MCN; for reduction of wound area relative to MCN+vehicle: within 3 days. As for the experimental part:
In a second set of experiments, Normal (n=70) and DB (n=70) Sprague-Dawley rats, 12-14 weeks of age and 8 weeks after injection of STZ, were subjected to wounding. Eight rats/treatment regimen were evaluated over the course of 3 independent experiments. The dorsum of the rat was shaved, and areas (20 mm in diameter) outlined with a marker in order to consistently position the wounds. Animals were anesthetized by i.p. injection of ketamine (60 mg/kg), xylazine (10 mg/kg), and acepromazine (1 mg/kg), and a 6 mm full-thickness circular excisional skin wound was made in the center of the demarked area to the level of the panniculus muscle using an Acupunch (Acuderm Inc., Fort Lauderdale, Fla.). Three wounds per rat were standardized such that the first wound was made 5 cm posterior to the occipital notch at the posterior of the animal's cranium and 1 cm off the midline. The second wound was created 7 cm posterior to the occipital notch at the posterior of the animal's cranium and 1 cm off the midline on the opposite side from the first wound. The third wound was placed 9 cm posterior to the occipital notch at the base of the animal's cranium and 1 cm off the midline on the same side as the first wound. To minimize the effects of diurnal rhythm, surgery was performed between 0800-0900 h. All wounds were left uncovered.
Topical administration of ˜0.1 ml of the carrier containing NTX or vehicle, using the dosage and carriers selected from the first experiment, was initiated immediately after wounding (0800 h for those rats receiving agents only once per day, and at 0800, 1200, and 1600 h for those animals receiving 3 applications daily); control rats received the carrier with vehicle either once or three times daily. Some animals in the Normal and DB groups were wounded but untreated.
Wound size was monitored by capturing images with a digital camera mounted on a tripod set 20 cm from the surface; a ruler was photographed with each wound. Animals were manually restrained without anesthesia for photography. Photographs were taken immediately after surgery and on days 3, 5, 7, 9, and 11. The area of each wound was analyzed using Image ProPlus 6.2 (Media Cybernetics, Inc., Bethesda, Md.). The percent residual wound was calculated at each time point for every rat. At 8 days, wound closure also was quantified according to Pietramaggiori and colleagues (Pietramaggiori et al., J Surg Res 160:169-177 (2010)) by measuring contraction, re-epithelialization, and open wound as a percentage of the original wound area. The sum of contracted, re-epithelialized, and open wound area was defined as equaling 100% of the original wound size (Yannas I., Tissue and Organ Regeneration in Adults. New York: Springer, 2001).

Series [3] deals with epithelium covering the granulation tissue. Description: Histopathology and epithelial thickness of wounded region 20 days after wounding. Format: in vivo, rat. As for the experimental part:
On day 20 following creation of the wound, some rats were euthanized and the original wound areas as well as tissue peripheral to the wound that encompassed the 20 mm diameter circle were excised and fixed in 10% neutral buffered formalin. Tissues were processed for paraffin embedding; sections were stained with hematoxylin and eosin. The thickness of the epithelium covering the granulation tissue was measured with an ocular micrometer. Five measures/section from 7-8 wounds/treatment group were evaluated at 250× magnification.

The test system of series [4] is full-thickness cutaneous wound. Description: Healing of 5-mm full-thickness cutaneous wound in Type 2 diabetic (db/db) mice. Type of series: in vivo. The note with it: 10^−5 M NTX in moisturizing cream 3 times daily, by days 6, 13, and 15, p<0.05. From the text:
To study the effects of opioid receptor antagonists on wound healing in a Type 2 diabetic and general obesity model, wound healing was compared between wild type and Lepr^db (also referred to as db/db) mutant mice. Mice homozygous for the diabetes spontaneous mutation (Lepr^db) become identifiably obese around 3 to 4 weeks of age. Plasma insulin levels become elevated beginning at 10 to 14 days and blood sugar levels become elevated beginning at four to eight weeks. These mice show delayed wound healing compared to wild type mice.
Mice were purchased from Jackson Laboratories and housed under standard laboratory care. Body weights and blood glucose levels of 8-week old Type 2 diabetic (db/db) mice and wild type C57Bl/6 mice were obtained (FIG. 9). Tail vein blood was obtained and glucose levels were measured by a TrueTrak glucometer. Values represent means±SEM; n=6-10 mice/treatment group.
To study wound healing, a 5-mm circular full-thickness cutaneous wound was created on the dorsum of db/db and wild type mice. Db/db mice were treated with either 10^−5 M Naltrexone (NTX) in moisturizing cream (vehicle), or vehicle alone; wild type mice received vehicle only. Applications were made 3 times daily for 15 days.

For another series, the system named is human and animal cells. The conditions noted are these: human and animal cells (Cheng 2009); cited from earlier work.
For series [5] the following is noted: literature reports (Stinchcomb 2002; Krishman 2010); cited from earlier work.

Consider `O=C1CC[C@@]2(O)[C@H]3Cc4ccc(O)c5c4[C@@]2(CCN3CC2CC2)[C@H]1O5` [NTX, 17-(cyclopropylmethyl)-4,5α-epoxy-3,14-dihydroxymorphinan-6-one], for which the “increase of BrdU incorporation relative to labeling index of DB animals” value in series [1] (systemic 30 mg/kg NTX i.p.) came out at 181%; in series [1] (systemic 30 mg/kg NTX s.c.) it was 59%. In addition, the “effect on BrdU incorporation” value in series [1] (DB rats, topical NTX 10^−4 and 10^−5 M in SPB) is “no effect”. Further, the “elevation of labeling index from baseline levels” value in series [1] (DB rats, topical NTX at all 3 dosages in KYJ) is on record as 103-147%; in series [1] (DB rats, topical NTX at all 3 dosages in MCN), 85-89%. In series [1] (DB rats, topical NTX combined with DMSO, only at 10^−4 and 10^−5 M), the “efficacy on BrdU labeling” value is “efficacious”. The “elevation of BrdU labeling relative to labeling index of Normal rats” value in series [1] (Normal rats, systemic 30 mg/kg NTX i.p.) was 172%; in series [1] (Normal rats, systemic 30 mg/kg NTX s.c.), 51%. For the same compound, the “elevation of DNA synthesis from baseline levels” value in series [1] (Normal rats, topical NTX 10^−4 M to 10^−6 M in any of the 4 carriers (SPB, DMSO, KYJ, MCN)) is on record as 43-132%. For the same compound, in series [1] (Normal rats, topical NTX in SPB), the “increase in BrdU incorporation in the skin compared to baseline” value is given as 43-56%. In addition, the “change of BrdU incorporation from baseline” value in series [1] (Normal rats, topical NTX, different dosages, in MCN) was 73-132%. Further, the “toxicity of the effects on cell proliferation” value in series [1] (T1D and normal rats, systemic or topical) is recorded as “not toxic”. For the same compound, the “reduction of wound size relative to MCN+vehicle” value in series [2] (one time daily, days 3, 5, 7, and 9) is on record as 31-82%; in series [2] (three times daily, days 3, 5, 7, and 9 (day 9 not significant)), 11-23%. In addition, the “reduction of wound area relative to MCN+vehicle” value in series [2] (single daily regimen) worked out at 30%; in series [2] (three times daily), 11%. Also, the “thickness of the epithelium relative to Normal animals receiving vehicle (24.6±1.6 μm)” value in series [3] (DB rats subjected to NTX, day 20 (DB vehicle had a 44% reduction)) is listed as “did not differ”; in series [3] (Normal rats treated with NTX, day 20) it was “did not differ”. Also, the “general structure of the epithelium (e.g., absence of necrotic cells)” value in series [3] (Normal and DB rats receiving vehicle or NTX, 20 days following surgery) is given as “appeared to be similar”. Moreover, the “wound healing (percent residual defect) relative to db/db mice treated with vehicle only” value in series [4] is “significant improvement in would healing”. In the series on human and animal cells, the entry into cells result is listed as “rapidly by passive diffusion”. In addition, in series [5], the “penetration of the skin” value was “poor penetrator of the skin”.
